The values below come from patent US12371464B2, “Polypeptides and uses thereof” (MEDIMMUNE LIMITED, priority 2020, dated 2025).

Numbered stars: 1 amine (or outer) side, 2 acyl side, 3 side chain; on linkers, the order of the positions; unused ones are H or OH. Bridge positions count the residues as written; N and C are the ends. Side chains are listed from the residue outwards. Peptide text beside a SMILES is read from it. * marks the point of attachment. C20 diacid = O=C(O)CCCCCCCCCCCCCCCCCCC(=O)*; γGlu = O=C(O)[C@H](CCC(=O)[*:2])N[*:1]

Assay [1] addresses T1, rat calcitonin receptor (rat CTR) (Rattus norvegicus, UniProt P32214).
T1 construct: expressed in transfected cells
T1 sequence (P32214 25-516): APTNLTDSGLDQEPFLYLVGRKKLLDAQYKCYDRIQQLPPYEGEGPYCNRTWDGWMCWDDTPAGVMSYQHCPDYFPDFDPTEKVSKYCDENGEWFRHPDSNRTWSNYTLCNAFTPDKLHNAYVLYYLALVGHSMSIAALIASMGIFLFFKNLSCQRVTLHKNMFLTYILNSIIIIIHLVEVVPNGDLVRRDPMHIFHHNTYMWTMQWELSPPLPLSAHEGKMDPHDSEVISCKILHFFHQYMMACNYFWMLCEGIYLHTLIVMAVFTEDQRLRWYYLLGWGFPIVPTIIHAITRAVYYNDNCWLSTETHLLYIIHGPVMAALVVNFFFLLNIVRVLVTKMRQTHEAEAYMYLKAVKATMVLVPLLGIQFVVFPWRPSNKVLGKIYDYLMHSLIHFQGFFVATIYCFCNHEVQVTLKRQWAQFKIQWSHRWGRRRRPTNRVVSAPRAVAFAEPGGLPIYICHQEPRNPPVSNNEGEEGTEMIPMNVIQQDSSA
In words: cAMP production in HEK cells with stable recombinant expression of rat calcitonin receptor (rat CTR). To be noted: cAMP HTRF, assay buffer with 0.1% BSA, 30 minutes. The format is cell-based. Here is the method: (§1) The functional activities of lipidated pramlintide analogue peptides, such as cAMP production, were tested in 1321N1 cell line with stable recombinant expression of human calcitonin receptor (hCTR) or human amylin receptor (calcitonin receptor co-expressed with receptor activity modifying protein, RAMP3) (hAMYR3) or HEK cells with stable recombinant expression of rat calcitonin receptor (rat CTR) or rat amylin receptor (calcitonin receptor co-expressed with receptor activity modifying protein, RAMP3) (Rat AMYR3). […]
(§2) The test peptide stock was prepared in DMSO and diluted in assay buffer to reach stated concentrations and transferred in duplicates into a 384-black shallow well microtitre assay plate (Corning #3676). Cells were added to the assay plate, incubated at room temperature for 30 minutes and the CAMP level measured using CAMP dynamic 2 HTRF kit (Cisbio, Cat #62AM4PEJ), following the two step protocol as per manufacturer's recommendations. The plates were read on an Envision (Perkin Elmer) using excitation wavelength of 320 nm and emission wavelengths of 620 nm & 665 nm.
(§3) Data was transformed to % Delta F as described in the manufacturer's guidelines and analyzed as percent activation of maximal amylin or calcitonin effect by 4-parameter logistic fit to determine EC50 values. […]
In general terms: cAMP levels reflect the balance of adenylyl cyclase and phosphodiesterase activity.

Assay [2] addresses T2, rat amylin receptor (calcitonin receptor co-expressed with receptor activity modifying protein, RAMP3) (Rat AMYR3) (Rattus norvegicus, UniProt P32214+Q9JJ73).
T2 construct: expressed in transfected cells
T2 sequence (P32214 25-516): T1 sequence (P32214 25-516)
T2 sequence (Q9JJ73 23-147 partner): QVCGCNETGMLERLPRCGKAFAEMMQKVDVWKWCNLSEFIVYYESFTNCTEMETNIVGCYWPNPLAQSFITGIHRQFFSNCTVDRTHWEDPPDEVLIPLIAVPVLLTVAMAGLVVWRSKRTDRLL
The experiment in a line: cAMP production in HEK cells with stable recombinant expression of rat amylin receptor (Rat AMYR3). Format: cell-based. To be noted: cAMP HTRF, assay buffer with 0.1% BSA, 30 minutes. Here is the method:
as §1, §2, §3

The target of assay [3] is T3, human calcitonin receptor (hCTR) (Homo sapiens, UniProt P30988).
T3 construct: expressed in transfected cells
T3 sequence (P30988 25-474): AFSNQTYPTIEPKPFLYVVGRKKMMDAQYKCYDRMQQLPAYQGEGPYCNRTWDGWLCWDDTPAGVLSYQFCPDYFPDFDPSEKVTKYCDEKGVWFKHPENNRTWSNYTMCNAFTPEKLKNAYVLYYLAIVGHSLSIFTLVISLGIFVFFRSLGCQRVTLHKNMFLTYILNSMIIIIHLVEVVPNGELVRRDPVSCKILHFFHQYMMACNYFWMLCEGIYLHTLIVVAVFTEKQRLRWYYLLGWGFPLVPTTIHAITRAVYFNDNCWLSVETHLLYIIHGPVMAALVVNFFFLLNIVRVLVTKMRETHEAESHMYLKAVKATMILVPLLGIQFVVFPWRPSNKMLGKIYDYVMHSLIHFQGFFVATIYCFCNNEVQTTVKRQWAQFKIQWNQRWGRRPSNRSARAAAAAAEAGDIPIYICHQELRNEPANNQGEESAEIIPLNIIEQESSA
The experiment in a line: cAMP production in 1321N1 cells with stable recombinant expression of human calcitonin receptor (hCTR). The format is cell-based. To be noted: 1321N1 cells expressing human calcitonin receptor. The procedure: The functional activities of lipidated pramlintide analogue peptides, such as cAMP production, were tested in 1321N1 cell line with stable recombinant expression of human calcitonin receptor (hCTR) or human amylin receptor (calcitonin receptor co-expressed with receptor activity modifying protein, RAMP3) (hAMYR3) or HEK cells with stable recombinant expression of rat calcitonin receptor (rat CTR) or rat amylin receptor (calcitonin receptor co-expressed with receptor activity modifying protein, RAMP3) (Rat AMYR3).
Cryopreserved cell stock was thawed rapidly in a water-bath, suspended in assay buffer (0.1% BSA (Sigma #A3059) in HBSS (Sigma #H8264) with 25 mM HEPES, pH 7.4 and containing 0.5 mM IB MX (Sigma #17018)) and spun at 240×g for 5 minutes. Cells were re-suspended in assay buffer at a batch-dependent optimized concentration (e.g. hCTR cells at 0.125×10^5 cells/mL, hAMYR3 cells at 0.125×10^5 cells/mL, rat CTR cells at 1×10^5 cells/mL, rat AMYR3 at 2×10^5 cells/mL).
as §2
Data was transformed to % Delta F as described in the manufacturer's guidelines and analyzed as percent activation of maximal amylin or calcitonin effect by 4-parameter logistic fit to determine EC50 values. The selectivity of a peptide to hAMYR vs hCTR is defined as a ratio of EC50 values at the two receptors.

In a further assay the test system is lean rats. The experiment in a line: Rat acute food intake study. Format: in vivo, Sprague Dawley rats. To be noted: 20 nmol/kg subcutaneously. Here is the method: Male Sprague Dawley rats were obtained from Taconic Denmark, ApS at approximately 7 weeks of age. . . . Rats were implanted with a microchip for identification, housed 4/cage with enrichment, free access to food and water, and allowed one week acclimatisation while non-invasive characterization was performed. Rats were on a 12:12 light:dark cycle that switches at 1 pm:1 am. Food intake was monitored via the HM2 system (Lafayette Instrument) that allows for monitoring in a home cage. As each rat enters an access tunnel to feed, an IR beam is broken, and the implanted microchip is read. Resulting changes to food weight is then assigned to the specific animal. Social order has shown no impact to overall feeding patterns and amounts.
Rats were sorted into groups based on Day-1 body weight and 24-hour accumulated food intake (n=7 per group). On Day 0 rats were weighed, then fasted for 6 hours. Thirty (30) minutes prior to the reintroduction of food, rats were dosed subcutaneously (5 ml/kg) with 20 nmol/kg of test compound or 60 nmol/kg peptide 1 (pramlintide) diluted in an appropriate vehicle, after which food was returned, and lights went out. Automated food intake was monitored for the following 3 days, and rats were weighed once per day.
Food intake per rat was batched into 1-hour intervals and integrated into Gubra's GubraView data management system. Discrete food intake data was exported into MS Excel from which cumulative food intake data was generated. Cumulative food intake data was then transposed into GraphPad Prism (v8.0.1) for analysis of dark period feeding

On to `CC[C@H](C)[C@H](NC(=O)[C@@H]1CCCN1C(=O)CNC(=O)[C@H](Cc1ccccc1)NC(=O)[C@H](CC(N)=O)NC(=O)[C@H](CC(N)=O)NC(=O)[C@H](CO)NC(=O)[C@H](CO)NC(=O)[C@H](Cc1c[nH]cn1)NC(=O)[C@@H](NC(=O)[C@H](CC(C)C)NC(=O)[C@H](Cc1ccccc1)NC(=O)[C@H](CC(N)=O)NC(=O)[C@H](C)NC(=O)[C@H](CC(C)C)NC(=O)[C@H](CCCNC(=N)N)NC(=O)[C@H](CCC(N)=O)NC(=O)[C@@H](NC(=O)[C@H](C)NC(=O)[C@@H]1CSSC[C@H](NC(=O)[C@@H](N)CCCCNC(=O)CC[C@H](NC(=O)CC[C@H](NC(=O)CCCCCCCCCCCCCCCCCCC(=O)O)C(=O)O)C(=O)O)C(=O)N[C@@H](CC(N)=O)C(=O)N[C@@H]([C@@H](C)O)C(=O)N[C@@H](C)C(=O)N[C@@H]([C@@H](C)O)C(=O)N1)[C@@H](C)O)C(C)C)C(=O)N[C@@H](CC(C)C)C(=O)N1CCC[C@H]1C(=O)N1CCC[C@H]1C(=O)N[C@H](C(=O)N[C@@H](CC(N)=O)C(=O)N[C@H](C(=O)NCC(=O)N[C@@H](CO)C(=O)N[C@@H](CCCNC(=N)N)C(=O)N[C@H](C(=O)N[C@@H](Cc1ccc(O)cc1)C(N)=O)[C@@H](C)O)C(C)C)[C@@H](C)O` [Peptide 114] (H-K([γGlu-γGlu-C20 diacid])CNTATCATQRLANFLVHSSNNFGPILPPTNVGSRTY-NH2; disulfide 2-7; N-terminus assumed), for which the concentration for a half-maximal effect (EC50) in assay [1] is 4.87 nM. Besides, the EC50 in assay [2] was 0.0122 nM. In addition, the concentration giving a half-maximal response (EC50) in assay [3] came out at 15.8 nM. For the same compound, in the assay on lean rats, the “Cummulative food intake (% vehicle treated intake) At 12 h” value is given as 42.3 % vehicle treated intake, the “Cummulative food intake (% vehicle treated intake) At 24 h” value is recorded as 45.1 % vehicle treated intake and the “Cummulative food intake (% vehicle treated intake) At 48 h” value was found to be 53.8 % vehicle treated intake.

On to `CC[C@H](C)[C@H](NC(=O)[C@H](C)NC(=O)[C@@H]1CCCN1C(=O)[C@H](Cc1ccccc1)NC(=O)[C@H](CC(N)=O)NC(=O)[C@@H]1CCCN1C(=O)[C@H](CO)NC(=O)[C@H](CO)NC(=O)[C@H](Cc1c[nH]cn1)NC(=O)[C@@H](NC(=O)[C@H](CC(C)C)NC(=O)[C@H](Cc1ccccc1)NC(=O)[C@H](CC(N)=O)NC(=O)[C@H](C)NC(=O)[C@H](CC(C)C)NC(=O)[C@H](CCCNC(=N)N)NC(=O)[C@H](CCC(N)=O)NC(=O)[C@@H](NC(=O)[C@H](C)NC(=O)[C@@H]1CSSC[C@H](NC(=O)[C@@H](N)CCCCNC(=O)CC[C@H](NC(=O)CC[C@H](NC(=O)CCCCCCCCCCCCCCCCCCC(=O)O)C(=O)O)C(=O)O)C(=O)N[C@@H](CC(N)=O)C(=O)N[C@@H]([C@@H](C)O)C(=O)N[C@@H](C)C(=O)N[C@@H]([C@@H](C)O)C(=O)N1)[C@@H](C)O)C(C)C)C(=O)N[C@@H](CC(C)C)C(=O)N[C@@H](CO)C(=O)N1CCC[C@H]1C(=O)N[C@H](C(=O)N[C@@H](CC(N)=O)C(=O)N[C@H](C(=O)NCC(=O)N[C@@H](CO)C(=O)N[C@@H](CC(N)=O)C(=O)N[C@H](C(=O)N[C@@H](Cc1ccc(O)cc1)C(N)=O)[C@@H](C)O)C(C)C)[C@@H](C)O` [Peptide 115] (H-K([γGlu-γGlu-C20 diacid])CNTATCATQRLANFLVHSSPNFPAILSPTNVGSNTY-NH2; disulfide 2-7; N-terminus assumed), for which, in assay [1], the EC50 was 22.6 nM. Besides, in assay [2], the EC50 turned out to be 0.0226 nM. Also, the EC50 in assay [3] was 7.65 nM. Besides, in the assay with lean rats, the “Cummulative food intake (% vehicle treated intake) At 12 h” value is given as 42.4 % vehicle treated intake, the “Cummulative food intake (% vehicle treated intake) At 24 h” value came out at 41.3 % vehicle treated intake and the “Cummulative food intake (% vehicle treated intake) At 48 h” value is 52.2 % vehicle treated intake.

By EC50 is commonly meant the midpoint of the concentration-response curve.
